Assay results taken from paper PMC12250347, “Calcium-dependent pathway as a primary cause of hypoxic RGC damage in monkey retinal explants” (PLOS One, 2025).
Entries after “also recorded” stand apart in the source; their conditions may differ.

Legend:
[1] = tested on: RGCs in monkey retinal explants; assay: PI staining and RGC counting in retinal explants under hypoxia/reoxygenation; assay type: cell-based, rhesus macaques (Macaca mulatta); details: H16R8; calcium chelator at higher concentration (BAPTA 10 mM; BAPTA-AM 0.5 mM, 2 hr before hypoxia)
Excerpt: Globes were obtained from rhesus macaques (Macaca mulatta) at 1–7 years of age from the Oregon National Primate Research Center (Beaverton, OR, USA). The wide range of ages was unavoidable because they became available from experiments that were unrelated to the present studies. These eyes were acceptable for the purpose of our experiments. The eyes were dissected within 5 hr after death, and excised eyes were soaked in cold Hanks’ balanced salt solution (HBSS; Corning, NY, USA) or Dulbecco’s phosphate-buffered saline (DPBS; Corning). Experimental animals were handled in accordance with the Research in Vision and Ophthalmology Statement for the Use of Animals in Ophthalmic and Vision Research and with the Guiding Principles in the Care and Use of Animals (Department of Health Education and Welfare Publication National Institutes of Health 80−23).
(§1) Retina explant culture was performed as described in our previous report, except for the induction of hypoxia. Briefly, a hypoxic chamber (Coy Laboratory Products, Grass Lake, MI, USA) was controlled at 0.3% oxygen with a 95% N2/5% CO2 gas mixture. Retinas were dissected into fan-shaped explants with 6 or 7 petals (> 5 mm) in HBSS. Each explant was placed with the RGC side facing up on a Millicell organotypic standing insert (0.4 μm, 30 mm diameter, MilliporeSigma) in six-well, culture plates. They were cultured for 2 hr at 37°C under 95% N2/5% CO2 in Neurobasal-A medium supplemented with B27, N2 supplements, 2 mM L-glutamine (Thermo Fisher Scientific, Waltham, MA, USA), and 100 μg/mL primocin (Invivogen, San Diego, CA, USA). Retinal explants were then chamber-cultured under hypoxic conditions for 16 hr in a culture medium with 0.5 mM glucose, under 0.3% oxygen. The retinas were then re-oxygenated for 8 hr in a culture medium with 5.5 mM glucose. Normoxic control retinas were cultured for 24 hr in a culture medium with 5.5 mM glucose. When present, calpain inhibitors (SNJ-1945, PD-151746, C2I, and ABT-957) and cathepsin inhibitors (Odanacatib and SID26681509) in 0.1% DMSO were used at the final concentration of 10 or 100 μM in the medium. BAPTA (Thermo Fisher Scientific) and BAPTA-AM (Thermo Fisher Scientific) were also used at a final concentration of 3 or 10 mM or a final concentration of 100 or 500 μM, respectively.
(§2) All inhibitors and BAPTA were treated simultaneously with hypoxia induction, and BAPTA-AM treatment was 2 hr before hypoxia induction.
To assess the disruption of membrane barrier function, propidium iodide (PI) was utilized. Following hypoxia/reoxygenation treatment, retinal explants were incubated for 20 min in a medium containing a final concentration of 2 μg/ml of PI. For quantitative analysis, the RGC marker, RNA-binding protein with multiple splicing (RBPMS) was used at a 1:100 dilution (PhosphoSolutions, Aurora, CO, USA). RBPMS-positive and PI-positive cells in the ganglion cell layer were counted in 2 images from 2 square areas (775 × 775 μm each) located 3–5 mm and 5–7 mm away from the tips of the fan-shaped retinal flat mounts. The percentage of PI-positive RGCs was calculated as [the number of PI and RBPMS-double positive cells/the number of all RBPMS-positive cells] × 100.

[2] = tested on: calpain-specific SBDP150 in nerve fiber layer (NFL); assay: SBDP150 immunostaining of flat-mounted retinal explants under hypoxia/reoxygenation; assay type: cell-based, rhesus macaques (Macaca mulatta); details: H16R8
Protocol: as §1, §2
Formalin-fixed retinal explants were incubated overnight at −30°C in 1: 4 dilutions of DMSO-ethanol to promote antibody penetration. The explants underwent two cycles of freezing and thawing between −80°C and room temperature in 100% ethanol for 20 min. The retinas were then rehydrated in 70%, 50%, and 15% ethanol and PBS for 20 min each, followed by overnight incubation with 0.2% Triton X-100. The samples were stained with antibodies specific for calpain-specific SBDP150 [8] (1:100 dilution, Senju Pharmaceutical) and β-III tubulin (a neuron marker, 1:500 dilution, Merck). The nerve fiber layer (NFL) was observed approximately 5 mm from the tips of the fan-shaped retinal flat mounts. Confocal images were taken using a model LSM 880 spectral confocal system with a 20x 0.8 NA lens (Carl Zeiss, Oberkochen, Germany).

[3] = tested on: calpain 1 activation and proteolysis of α-spectrin; assay: Immunoblotting of retinal explants under hypoxia/reoxygenation; assay type: cell-based, rhesus macaques (Macaca mulatta); details: H16R8; BAPTA 3 or 10 mM, BAPTA-AM 0.1 or 0.5 mM
Protocol: as §1, §2
(§3) Each retinal explant was sonicated in RIPA Lysis and Extraction Buffer (Thermo Fisher Scientific), with protease inhibitors cocktail (Complete Mini-EDTA-free; MilliporeSigma). Protein concentrations in lysates were measured by BCA assay (Pierce BCA Protein Assay Kit, Thermo Fisher Scientific) using bovine serum albumin as a standard. For immunoblotting, 5 μg of each sample was loaded and run on 4% to 12% gradient or 10% SDS-PAGE gels (NuPAGE Bis-Tris Protein Gels, Thermo Fisher Scientific) with 2-(N-morpholino)ethanesulfonic acid buffer or 3-(N-morpholino) propanesulfonic acid buffer (Thermo Fisher Scientific). Proteins were then electrotransferred to a polyvinylidene fluoride membrane (MilliporeSigma) at 100 V for 60 min or 1.5 hr. Membranes were then blocked with 5% skim milk in Tris-buffer saline (Bio-Rad Laboratories, Hercules, CA, USA) containing 0.05% Tween 20. Each membrane was probed with primary antibodies against α-spectrin (1:2000 dilution, Enzo Life Sciences, Farmingdale, NY, USA), SBDP150 (1:1000 dilution, Senju Pharmaceutical), calpain 1 (1:1000 dilution, Thermo Fisher Scientific), calpain 2 (1:500, GeneTex, Irvine, CA, USA), cathepsin K (1:500 dilution, Abcam), and β-actin (1:1000 dilution, Merck). For calpain 1, immunoreactivity was visualized using a secondary antibody conjugated to alkaline phosphatase and the AP Conjugate Substrate Kit (Bio-Rad Laboratories). For other proteins, immunoreactivities were visualized using secondary antibodies conjugated with rabbit (Santa Cruz Biotechnology) or mouse horseradish peroxidase enzyme (Cytiva, Wilmington, DE, USA) and ECL Plus detection reagents (Cytiva). Images of the membranes were captured with FluorChem FC2 imager (Cell Biosciences, Santa Clara, CA, USA). The conversion of pro-cathepsin K (38 kDa) to its mature form (27 kDa) was used as an indicator of cathepsin K activation.

[4] = target: T1, human erythrocyte calpain 1 (Homo sapiens, UniProt P07384); assay: Calpain-Glo Protease Assay; assay type: biochemical; details: 5 mM CaCl2, 10 min, room temperature; mean of two experiments
T1 construct: human erythrocyte calpain 1 (MilliporeSigma); purchased MilliporeSigma; host or cells: human erythrocytes
T1 sequence (P07384 1-714): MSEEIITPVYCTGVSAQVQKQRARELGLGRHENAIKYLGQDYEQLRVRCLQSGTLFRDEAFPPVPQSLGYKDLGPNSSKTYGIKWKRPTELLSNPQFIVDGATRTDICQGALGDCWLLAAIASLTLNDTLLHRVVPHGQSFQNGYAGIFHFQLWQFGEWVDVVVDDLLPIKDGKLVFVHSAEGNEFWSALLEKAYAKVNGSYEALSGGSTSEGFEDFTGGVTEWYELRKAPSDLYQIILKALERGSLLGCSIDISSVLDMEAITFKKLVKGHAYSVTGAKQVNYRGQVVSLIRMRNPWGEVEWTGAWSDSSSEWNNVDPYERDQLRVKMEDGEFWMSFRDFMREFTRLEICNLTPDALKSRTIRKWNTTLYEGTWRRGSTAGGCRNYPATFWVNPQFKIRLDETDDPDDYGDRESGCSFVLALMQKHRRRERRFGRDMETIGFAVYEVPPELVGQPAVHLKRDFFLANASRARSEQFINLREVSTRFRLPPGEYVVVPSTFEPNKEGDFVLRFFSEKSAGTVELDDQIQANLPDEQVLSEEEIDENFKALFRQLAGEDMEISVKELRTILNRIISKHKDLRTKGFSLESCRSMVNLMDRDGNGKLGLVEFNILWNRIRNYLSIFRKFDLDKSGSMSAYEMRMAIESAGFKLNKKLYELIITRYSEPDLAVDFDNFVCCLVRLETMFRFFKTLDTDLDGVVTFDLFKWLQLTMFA
T1 sequence (P04632 1-268 partner): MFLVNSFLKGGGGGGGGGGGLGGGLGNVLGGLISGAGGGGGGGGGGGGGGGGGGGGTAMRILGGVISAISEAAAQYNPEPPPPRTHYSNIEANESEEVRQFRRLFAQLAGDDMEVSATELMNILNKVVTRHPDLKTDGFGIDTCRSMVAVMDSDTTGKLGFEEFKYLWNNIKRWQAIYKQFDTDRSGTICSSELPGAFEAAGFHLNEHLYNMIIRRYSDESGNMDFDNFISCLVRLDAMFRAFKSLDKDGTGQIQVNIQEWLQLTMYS
Protocol: (§4) For measurement of inhibitory activities against calpains in vitro, Calpain-Glo Protease Assay (Promega; Madison, WI, USA) was performed using human erythrocyte calpain 1 (MilliporeSigma) and purified porcine calpain 2. Briefly, 24 µL of each calpain diluted with 20 mM Tris-HCl (pH 7.4), 1 µL of each inhibitor, and 25 µL of reaction buffer including CaCl2 in a 96-well plate was incubated for 10 min at room temperature. The final concentration of CaCl2 in the reaction solution was 5 mM. The luminescence was measured using a microplate reader (GloMax Discover System; Promega). IC50 values from two independent experiments were averaged.

[5] = tested on: purified porcine calpain 2; assay: Calpain-Glo Protease Assay; assay type: biochemical; details: 5 mM CaCl2, 10 min, room temperature; mean of two experiments
Excerpt: The porcine kidney was obtained from DART Co., Ltd. as part of a program aimed at the effective utilization of livestock by-products in Hokkaido, Japan. The procurement process followed ethical guidelines from Livestock Industry Bureau MAFF-J (ministry of agriculture, forestry and fisheries of Japan) for farm animal use, ensuring compliance with relevant regulations. Two porcine kidneys were rapidly frozen after removal, trimmed free of excess tissue or renal pelvis, and cut into small pieces (approximately 2 × 2 cm) before they thawed. About 250 g of these pieces were homogenized in 1200 mL of ice-cold 20 mM Tris-HCl (pH 8.0) with 5 mM ethylenediaminetetraacetic acid (EDTA), 0.1% 2-mercaptoethanol (2-ME), 0.1 mg/mL Pefabloc SC (MilliporeSigma, Burlington, MA, USA), 40 µg/mL bestatin, and 4 µg/mL pepstatin in a Waring blender HGBSS (Waring; Stamford, CT, USA) at 19,000 rpm using several bursts of 10 sec each with 20 sec cooling periods between each burst. The homogenate was centrifuged at 25,000 × g for 15 min at 4°C, and the supernatant was filtered through glass wool and a 5 µm filter (Merck) to remove floating lipids. The purification procedure was performed according to the method of Thompson and Goll with some minor modifications: the DEAE-cellulose and the DEAE-TSK ToyoPearl 650S columns were substituted with DEAE sepharose fast flow (Merck) and TSKgel DEAE-5PW (30) (Tosoh; Tokyo, Japan) columns, respectively. After purification, calpain-2 was dialyzed, and glycerol was added for freeze-thaw protection. The final buffer formulation was 20 mM imidazole, 5 mM 2-ME, 1 mM EDTA, 1 mM EGTA, and 20% glycerol.
as §4

[6] = tested on: calpains 1 and 2 in monkey retinal lysate; assay: In vitro inhibitory assay of calpains from retinal lysate (CaCl2, immunoblotting); assay type: biochemical; details: non-cultured monkey retina lysate, 10 mM CaCl2, 2 hr, 37°C; inhibitor at 1, 10 and 100 µM
Protocol: as §3
To confirm the isozyme specificities of calpain inhibitors in vitro, non-cultured monkey retinas were sonicated in a buffer containing 20 mM Tris (pH 7.5), 5 mM EGTA, 5 mM EDTA, 2 mM DTE. […]

| Structure (SMILES) | Effect on RGC damage (PI-positive RGCs) [1] | Effect on SBDP150 staining in NFL ([2]; BAPTA at lower concentration (3 mM)) | Effect on activation of calpain 1 and proteolysis of α-spectrin (immunoblot) [3] | Effect on SBDP150 staining in NFL ([2]; BAPTA-AM 500 μM) | IC50 [4] [nM] | IC50 [5] [nM] | Effect on calcium-induced activation (autolysis) of calpains 1 and 2 and SBDP150 in retinal lysate [6] |
| --- | --- | --- | --- | --- | --- | --- | --- |
| O=C(O)CN(CC(=O)O)c1ccccc1OCCOc1ccccc1N(CC(=O)O)CC(=O)O [BAPTA] | almost completely inhibited | reduced SBDP150 staining | mitigated; also recorded: inhibited the autolytic activation of calpain 1 | – | – | – | – |
| CC(=O)OCOC(=O)CN(CC(=O)OCOC(C)=O)c1ccccc1OCCOc1ccccc1N(CC(=O)OCOC(C)=O)CC(=O)OCOC(C)=O [BAPTA-AM] | partial | – | mitigated | inhibited the increase in SBDP150 staining | – | – | – |
| O=C(NC1CC1)C(=O)C(Cc1ccccc1)NC(=O)[C@H]1CCC(=O)N1Cc1ccccc1 (stereo partly drawn) [ABT-957] | – | – | – | – | 403 | 429 | inhibited the activation of both calpain 1 and calpain 2 in a dose-dependent manner |
| O=C(O)/C(S)=C/c1c[nH]c2ccc(F)cc12 [PD-151746] | – | – | – | – | 150 | 249 | also inhibited calpain activation, but not as strongly as SNJ-1945 and ABT-957 |
